Patent US20090068290A1, “BIFEPRUNOX DOSES FOR TREATING SCHIZOPHRENIA” (priority 2006, published 2009)

Columns and labels:
[1] = system: patients with chronic schizophrenia; experiment: PANSS general psychopathology subscale score, Clinical Study Four; type: in vivo, human; conditions: FAS, ANCOVA; for PANSS general psychopathology, Adjusted Mean Change from Baseline (LS mean): LOCF
Experimental: (§1) METHODOLOGY: This study was a multinational, multicenter, randomized, double-blind, parallel-group, placebo-controlled, fixed-dose study. The study consisted of a 3- to 6-day antipsychotic-free run-in period, after which patients were randomised to 6 months of double-blind treatment with fixed doses of bifeprunox (20 mg/day (BX20) or 30 mg/day (BX30)) or placebo (PBO). Patients allocated to the BX groups were up-titrated from 0.25 mg/day over 7 days (BX20) or 8 days (BX30), and then continued on these doses for the remainder of the study. […] At predetermined time points, blood samples were obtained for drug concentration analysis of BX and its major metabolites (3′- and 4′-sulfate conjugates of BX), and pharmaco-economic assessments were performed.

[2] = Lipid profile and fasting glucose, Clinical Study Four; type: in vivo, human
Experimental: as §1

[3] = system: patients with chronic schizophrenia; experiment: PANSS responders (reduction in PANSS total score), Clinical Study Four; type: in vivo, human; conditions: FAS, LOCF
Experimental: as §1
CLINICAL STUDY FOUR: The proportion of patients with a ≧25%, ≧35%, ≧45%, or ≧55% reduction in PANSS total score relative to baseline at each visit (PANSS responders) is shown by LOCF (FIG. 4).

[4] = system: adult subjects with schizophrenia; experiment: CGI responder rate, Clinical Study Two; type: in vivo, human; conditions: LOCF
Experimental: Notable differences were also observed between the 30 mg bifeprunox group and placebo for the change from baseline to endpoint in PANSS general psychopathology subscale score, BPRS total score, BPRS psychosis cluster score, PANSS responder rate, and CGI-I responder rate. In the study, a PANSS responder refers to a subject whose PANSS total score decreased by 20% or more from baseline to endpoint. A CGI-I responder refers to a subject who was categorized as “very much improved” or “much improved” in the CGI Global Improvement scale at endpoint.
Pharmacokinetic (PK) data of bifeprunox in schizophrenic subjects were also assessed and are presented in a separate report (combined with data from study S1543003).
(§2) Subjects who completed this study had the option to continue in the long-term. […] Risperidone-treated subjects were titrated from 2 mg to 6 mg daily over a three-day period and were subsequently maintained at 6 mg/day for the remainder of the treatment period. […] Blood samples were also obtained at Screening/Baseline, Week 3, and Week 6 for clinical laboratory assessments.
CLINICAL STUDY TWO: A CGI responder is defined as a subject who is categorized as “very much improved” or “much improved” on the CGI Improvement scale. […] A notable difference between the 30 mg bifeprunox group and placebo was seen (p=0.039).

[5] = Pooled metabolic analysis, 6-week studies: glucose
Description: OBJECTIVE: To examine the metabolic effects of bifeprunox in patients with acute and stable schizophrenia.
METHODS: Metabolic data was compiled from one 6-month and four 6-week studies (i.e., a treatment period) of bifeprunox in patients with stable and acute schizophrenia, respectively. In the 6-month study, patients received bifeprunox (n=331) or placebo (PBO) (n=166). […] Metabolic evaluations included body weight, body mass index (BMI), plasma glucose and lipid profiles. Fasting glucose and lipid values were assessed in one 6-week study and in the 6-month study. Triglyceride:HDL ratio (TG:HDL) was calculated as a marker of insulin resistance. No statistical analyses were performed; only descriptive statistics are presented.

[6] = system: serum proteins; experiment: Binding to serum proteins
[7] = system: adult subjects with schizophrenia; experiment: Calgary Depression Scale for Schizophrenia (CDSS), Clinical Study Two; type: in vivo, human; conditions: for CDSS Total Score, Trt Effect / Change from Baseline in CDSS Total Score, Mean (SD) / Change from Baseline in CDSS Total Score, Median / mean change (SD) from Baseline to Endpoint in CDSS score: LOCF; for CDSS score, treatment effect (bifeprunox, placebo): Endpoint LOCF; for mean change (SD) from Baseline to Endpoint in CDSS score: ITT
Experimental: Rating scale assessments were performed weekly, except for week 5, to measure the change from baseline to endpoint of the PANSS total score. Other assessments included: PANSS positive symptom subscale score, PANSS negative symptom subscale score, PANSS general pschopathology subscale score, BPRS total score, BPRS psychosis score, the CGI-S score, the CGI-I score, responder rates based on the PANSS total score, and the Calgary Depression Scale for Schizophrenia (CDSS). […]
as §2

[8] = BX20 (bifeprunox 20 mg), Fasting
[9] = BX20 (bifeprunox 20 mg), Non-fasting
[10] = BX30 (bifeprunox 30 mg), Fasting
[11] = BX30 (bifeprunox 30 mg), Non-fasting

SMILES: O=c1[nH]c2cccc(N3CCN(Cc4cccc(-c5ccccc5)c4)CC3)c2o1 [Bifeprunox, 7-[4-([1,1′-biphenyl]-3-ylmethyl)-1-piperazinyl]-2(3H)-benzoxazolone]
- PANSS general psychopathology subscale scores versus PBO, per-visit LOCF analysis ([1]; BX20 and BX30): statistically significantly superior to PBO from Week 9 onwards
- PANSS general psychopathology, Adjusted Mean Change from Baseline (LS mean) ([1]; Month 6, listed as BX20): 0.4
- PANSS general psychopathology, Adjusted Mean Change from Baseline (LS mean) ([1]; Month 6, listed as BX30): 0.8
- PANSS general psychopathology, Adjusted Mean Change from Baseline (LS mean) ([1]; Week 6, listed as BX20): −1.2
- PANSS general psychopathology, Adjusted Mean Change from Baseline (LS mean) ([1]; Week 6, listed as BX30): −0.4
- adjusted mean fasting glucose increase from baseline to Month 6 ([2]; BX20): 0.13 mmol/L
- Cholesterol, total, Mean change from baseline to Month 6 [2, 8]: -0.18 mmol/L
- HDL, direct, Mean change from baseline to Month 6 [2, 8]: 0.07 mmol/L
- LDL, calculated, Mean change from baseline to Month 6 [2, 8]: -0.1 mmol/L
- Triglycerides, Mean change from baseline to Month 6 [2, 8]: -0.08 mmol/L
- VLDL, calculated, Mean change from baseline to Month 6 [2, 8]: -0.03 mmol/L
- Cholesterol, total, Mean change from baseline to Month 6 [2, 9]: -0.42 mmol/L
- HDL, direct, Mean change from baseline to Month 6 [2, 9]: 0.12 mmol/L
- LDL, calculated, Mean change from baseline to Month 6 [2, 9]: -0.35 mmol/L
- Triglycerides, Mean change from baseline to Month 6 [2, 9]: -0.41 mmol/L
- VLDL, calculated, Mean change from baseline to Month 6 [2, 9]: -0.19 mmol/L
- adjusted mean HDL cholesterol change from baseline to Month 6 ([2]; BX20, fasting): 0.07 mmol/L
- adjusted mean triglycerides change from baseline to Month 6 ([2]; BX20, fasting): -0.16 mmol/L
- adjusted mean HDL cholesterol change from baseline to Month 6 ([2]; BX20, non-fasting): 0.08 mmol/L
- adjusted mean triglycerides change from baseline to Month 6 ([2]; BX20, non-fasting): -0.21 mmol/L
- adjusted mean fasting glucose increase from baseline to Month 6 ([2]; BX30): 0.09 mmol/L
- Cholesterol, total, Mean change from baseline to Month 6 [2, 10]: -0.22 mmol/L
- HDL, direct, Mean change from baseline to Month 6 [2, 10]: 0.05 mmol/L
- LDL, calculated, Mean change from baseline to Month 6 [2, 10]: -0.12 mmol/L
- Triglycerides, Mean change from baseline to Month 6 [2, 10]: -0.40 mmol/L
- VLDL, calculated, Mean change from baseline to Month 6 [2, 10]: -0.16 mmol/L
- Cholesterol, total, Mean change from baseline to Month 6 [2, 11]: -0.10 mmol/L
- HDL, direct, Mean change from baseline to Month 6 [2, 11]: 0.08 mmol/L
- LDL, calculated, Mean change from baseline to Month 6 [2, 11]: -0.12 mmol/L
- Triglycerides, Mean change from baseline to Month 6 [2, 11]: 0.06 mmol/L
- VLDL, calculated, Mean change from baseline to Month 6 [2, 11]: 0.03 mmol/L
- adjusted mean HDL cholesterol change from baseline to Month 6 ([2]; BX30, fasting): 0.07 mmol/L
- adjusted mean triglycerides change from baseline to Month 6 ([2]; BX30, fasting): -0.37 mmol/L
- adjusted mean HDL cholesterol change from baseline to Month 6 ([2]; BX30, non-fasting): 0.08 mmol/L
- adjusted mean triglycerides change from baseline to Month 6 ([2]; BX30, non-fasting): -0.03 mmol/L
- proportion of patients with at least a 25% reduction in PANSS total score versus PBO ([3]; listed as BX20): statistically significantly larger than that in the PBO group from Week 9 onwards
- proportion of patients with at least a 25% reduction in PANSS total score versus PBO ([3]; listed as BX30): statistically significantly larger than that in the PBO group at Month 5 only
- CGI Responder at Endpoint No, % ([4]; 30 mg): 64%
- CGI Responder at Endpoint Yes, % ([4]; 30 mg): 36%
- CGI Responder at Endpoint No, % ([4]; 40 mg): 72%
- CGI Responder at Endpoint Yes, % ([4]; 40 mg): 28%
- CGI-I responder rate (subjects much or very much improved) at Endpoint ([4]; bifeprunox 30 mg): 36%
- CGI-I responder rate (subjects much or very much improved) at Endpoint ([4]; bifeprunox 40 mg): 28%
- change in mean fasting glucose at endpoint [5]: -1.44 mg/dL
- decrease in mean fasting glucose at endpoint [5]: 1.6%
- bound to serum proteins [6]: approximately 99%
- CDSS Total Score, Trt Effect ([7]; 30 mg versus placebo, Week 6/Endpoint): −0.38
- Change from Baseline in CDSS Total Score, Mean (SD) ([7]; 30 mg, Week 1): −0.01 (2.90)
- Change from Baseline in CDSS Total Score, Median ([7]; 30 mg, Week 1): 0.0
- Change from Baseline in CDSS Total Score, Mean (SD) ([7]; 30 mg, Week 2): −0.51 (3.37)
- Change from Baseline in CDSS Total Score, Median ([7]; 30 mg, Week 2): 0.0
- Change from Baseline in CDSS Total Score, Mean (SD) ([7]; 30 mg, Week 3): −0.51 (3.56)
- Change from Baseline in CDSS Total Score, Median ([7]; 30 mg, Week 3): 0.0
- Change from Baseline in CDSS Total Score, Mean (SD) ([7]; 30 mg, Week 4): −0.63 (3.48)
- Change from Baseline in CDSS Total Score, Median ([7]; 30 mg, Week 4): 0.0
- Change from Baseline in CDSS Total Score, Mean (SD) ([7]; 30 mg, Week 6/Endpoint): −0.66 (3.64)
- Change from Baseline in CDSS Total Score, Median ([7]; 30 mg, Week 6/Endpoint): 0.0
- CDSS Total Score, Trt Effect ([7]; 40 mg versus placebo, Week 6/Endpoint): 0.29
- Change from Baseline in CDSS Total Score, Mean (SD) ([7]; 40 mg, Week 1): −0.54 (2.56)
- Change from Baseline in CDSS Total Score, Median ([7]; 40 mg, Week 1): 0.0
- Change from Baseline in CDSS Total Score, Mean (SD) ([7]; 40 mg, Week 2): −0.32 (2.95)
- Change from Baseline in CDSS Total Score, Median ([7]; 40 mg, Week 2): 0.0
- Change from Baseline in CDSS Total Score, Mean (SD) ([7]; 40 mg, Week 3): −0.44 (3.09)
- Change from Baseline in CDSS Total Score, Median ([7]; 40 mg, Week 3): 0.0
- Change from Baseline in CDSS Total Score, Mean (SD) ([7]; 40 mg, Week 4): −0.19 (3.32)
- Change from Baseline in CDSS Total Score, Median ([7]; 40 mg, Week 4): 0.0
- Change from Baseline in CDSS Total Score, Mean (SD) ([7]; 40 mg, Week 6/Endpoint): 0.01 (3.66)
- Change from Baseline in CDSS Total Score, Median ([7]; 40 mg, Week 6/Endpoint): 0.0
- CDSS score, treatment effect (bifeprunox, placebo) ([7]; bifeprunox 30 mg): −0.38
- mean change (SD) from Baseline to Endpoint in CDSS score ([7]; bifeprunox 30 mg): −0.66 (3.64)
- CDSS score, treatment effect (bifeprunox, placebo) ([7]; bifeprunox 40 mg): 0.29
- mean change (SD) from Baseline to Endpoint in CDSS score ([7]; bifeprunox 40 mg): 0.01 (3.66)

SMILES: Cc1nc2n(c(=O)c1CCN1CCC(c3noc4cc(F)ccc34)CC1)CCCC2 [Risperidone, risperidone, reference compound]
- CGI Responder at Endpoint No, % ([4]; 6 mg): 48%
- CGI Responder at Endpoint Yes, % ([4]; 6 mg): 52%
- CGI-I responder rate (subjects much or very much improved) at Endpoint ([4]; risperidone 6 mg): 52%
- Change from Baseline in CDSS Total Score, Mean (SD) ([7]; 6 mg, Week 1): −0.62 (2.42)
- Change from Baseline in CDSS Total Score, Median ([7]; 6 mg, Week 1): 0.0
- Change from Baseline in CDSS Total Score, Mean (SD) ([7]; 6 mg, Week 2): −0.74 (2.71)
- Change from Baseline in CDSS Total Score, Median ([7]; 6 mg, Week 2): 0.0
- Change from Baseline in CDSS Total Score, Mean (SD) ([7]; 6 mg, Week 3): −0.93 (3.41)
- Change from Baseline in CDSS Total Score, Median ([7]; 6 mg, Week 3): 0.0
- Change from Baseline in CDSS Total Score, Mean (SD) ([7]; 6 mg, Week 4): −0.95 (3.08)
- Change from Baseline in CDSS Total Score, Median ([7]; 6 mg, Week 4): 0.0
- Change from Baseline in CDSS Total Score, Mean (SD) ([7]; 6 mg, Week 6/Endpoint): −0.89 (3.42)
- Change from Baseline in CDSS Total Score, Median ([7]; 6 mg, Week 6/Endpoint): 0.0
- mean change (SD) from Baseline to Endpoint in CDSS score ([7]; risperidone 6 mg): −0.89 (3.42)
